Results from ChEMBL document CHEMBL1201862, “PubChem BioAssay data set” (2004).
Values belong to the compound of their own block, whether it stands above or below them. Activity calls are given as the source filed them.

Columns and labels:
Cannabinoid receptor 1 [1] = molecular target: T1, Cannabinoid receptor 1 (Homo sapiens, UniProt P21554); assay: SAR analysis of agonists of the Cannabinoid Receptor 1 using an Image-Based Assay - Set 2. [Related pubchem assays (depositor defined):AID2013, AID2026]; type: functional
T1 sequence (P21554 whole entry): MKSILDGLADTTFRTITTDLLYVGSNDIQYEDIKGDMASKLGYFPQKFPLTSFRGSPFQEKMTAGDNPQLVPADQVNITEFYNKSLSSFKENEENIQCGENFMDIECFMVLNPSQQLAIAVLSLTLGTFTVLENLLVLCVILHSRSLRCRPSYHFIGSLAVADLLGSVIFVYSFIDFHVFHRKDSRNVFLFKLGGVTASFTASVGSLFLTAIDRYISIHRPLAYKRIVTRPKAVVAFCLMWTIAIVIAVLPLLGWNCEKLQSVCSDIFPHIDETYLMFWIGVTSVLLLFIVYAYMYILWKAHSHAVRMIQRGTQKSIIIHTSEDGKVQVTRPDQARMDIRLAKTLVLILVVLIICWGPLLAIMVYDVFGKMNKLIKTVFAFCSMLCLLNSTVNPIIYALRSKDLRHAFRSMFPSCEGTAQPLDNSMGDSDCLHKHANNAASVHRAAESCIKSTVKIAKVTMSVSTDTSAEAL

Cannabinoid receptor 1 [2] = molecular target: T1, Cannabinoid receptor 1; assay: SAR analysis of antagonists of the Cannabinoid Receptor 1 using an Image-Based Assay - Set 2. [Related pubchem assays (depositor defined):AID2013, AID2026]; type: functional
[3] = molecular target: T2, G-protein coupled receptor 55 (Homo sapiens, UniProt Q9Y2T6); assay: blockade of LPI-induced GPR55 arrestin translocation – imaging, U2OS, beta-arrestin-GFP, LPI agonist, set 2, SAR follow-up (AID 2820); type: functional
T2 sequence (Q9Y2T6 whole entry): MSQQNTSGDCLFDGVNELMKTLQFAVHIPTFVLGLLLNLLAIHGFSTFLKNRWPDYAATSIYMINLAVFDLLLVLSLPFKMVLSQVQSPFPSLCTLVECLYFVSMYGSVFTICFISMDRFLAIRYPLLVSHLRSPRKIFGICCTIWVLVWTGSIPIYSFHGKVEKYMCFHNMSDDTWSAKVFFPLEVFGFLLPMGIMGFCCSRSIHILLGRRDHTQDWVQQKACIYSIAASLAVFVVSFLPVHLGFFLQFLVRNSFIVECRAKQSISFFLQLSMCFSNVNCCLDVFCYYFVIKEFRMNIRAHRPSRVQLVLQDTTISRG

[4] = molecular target: T2, G-protein coupled receptor 55; assay: inhibition of LPI-stimulated GPR55 beta-arrestin translocation – imaging, U2OS, beta-arrestin-GFP, LPI agonist, primary screen (AID 2013); type: functional;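 also: antagonist potency measured as reduced agonist-driven arrestin aggregation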
[5] = molecular target: T3, G-protein coupled receptor 35 (Homo sapiens, UniProt Q9HC97); assay: SAR analysis of Agonists of the GPR35 Receptor using an Image-Based Assay - Set 2. [Related pubchem assays (depositor defined):AID2013, AID2026]; type: functional
T3 sequence (Q9HC97 whole entry): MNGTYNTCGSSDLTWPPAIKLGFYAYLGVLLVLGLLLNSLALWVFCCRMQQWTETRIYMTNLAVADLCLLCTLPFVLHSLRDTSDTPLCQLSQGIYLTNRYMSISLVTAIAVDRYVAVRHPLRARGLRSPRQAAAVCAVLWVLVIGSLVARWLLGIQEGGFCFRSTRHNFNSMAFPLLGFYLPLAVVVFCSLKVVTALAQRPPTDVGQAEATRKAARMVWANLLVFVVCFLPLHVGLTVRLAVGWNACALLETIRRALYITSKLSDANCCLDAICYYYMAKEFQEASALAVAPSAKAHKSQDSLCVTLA

Cannabinoid receptor 2 [6] = molecular target: T4, Cannabinoid receptor 2 (Homo sapiens, UniProt P34972); assay: SAR analysis of antagonists of the Cannabinoid Receptor 2 using an Image-Based Assay. [Related pubchem assays (depositor defined):AID2013, AID2026]; type: functional
T4 sequence (P34972 whole entry): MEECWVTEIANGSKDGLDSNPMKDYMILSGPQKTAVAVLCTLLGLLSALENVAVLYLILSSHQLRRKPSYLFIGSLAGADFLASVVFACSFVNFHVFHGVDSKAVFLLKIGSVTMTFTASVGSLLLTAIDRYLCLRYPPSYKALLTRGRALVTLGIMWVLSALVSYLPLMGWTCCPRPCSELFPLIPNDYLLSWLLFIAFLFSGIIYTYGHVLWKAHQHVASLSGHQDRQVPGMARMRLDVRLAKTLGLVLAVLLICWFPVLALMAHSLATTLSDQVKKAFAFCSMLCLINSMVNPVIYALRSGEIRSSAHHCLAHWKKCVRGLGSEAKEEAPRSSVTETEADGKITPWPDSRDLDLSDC

Cannabinoid receptor 2 [7] = molecular target: T4, Cannabinoid receptor 2; assay: SAR analysis of agonists of the Cannabinoid Receptor 2 using an Image-Based Assay. [Related pubchem assays (depositor defined):AID2013, AID2026]; type: functional
[8] = molecular target: T3, G-protein coupled receptor 35; assay: SAR analysis of Antagonists of the GPR35 Receptor using an Image-Based Assay - Set 3. [Related pubchem assays (depositor defined):AID2013, AID2026]; type: functional
[9] = molecular target: T5, Tyrosine-protein phosphatase non-receptor type 22 (Homo sapiens, UniProt Q9Y2R2); assay: SAR LYP1 Fluorescent Assay using pCAP substrate for In Vitro dose response studies - Set 2. [Related pubchem assays (depositor defined):AID1779, AID1784, AID2135, AID449727]; type: functional
T5 sequence (Q9Y2R2 whole entry): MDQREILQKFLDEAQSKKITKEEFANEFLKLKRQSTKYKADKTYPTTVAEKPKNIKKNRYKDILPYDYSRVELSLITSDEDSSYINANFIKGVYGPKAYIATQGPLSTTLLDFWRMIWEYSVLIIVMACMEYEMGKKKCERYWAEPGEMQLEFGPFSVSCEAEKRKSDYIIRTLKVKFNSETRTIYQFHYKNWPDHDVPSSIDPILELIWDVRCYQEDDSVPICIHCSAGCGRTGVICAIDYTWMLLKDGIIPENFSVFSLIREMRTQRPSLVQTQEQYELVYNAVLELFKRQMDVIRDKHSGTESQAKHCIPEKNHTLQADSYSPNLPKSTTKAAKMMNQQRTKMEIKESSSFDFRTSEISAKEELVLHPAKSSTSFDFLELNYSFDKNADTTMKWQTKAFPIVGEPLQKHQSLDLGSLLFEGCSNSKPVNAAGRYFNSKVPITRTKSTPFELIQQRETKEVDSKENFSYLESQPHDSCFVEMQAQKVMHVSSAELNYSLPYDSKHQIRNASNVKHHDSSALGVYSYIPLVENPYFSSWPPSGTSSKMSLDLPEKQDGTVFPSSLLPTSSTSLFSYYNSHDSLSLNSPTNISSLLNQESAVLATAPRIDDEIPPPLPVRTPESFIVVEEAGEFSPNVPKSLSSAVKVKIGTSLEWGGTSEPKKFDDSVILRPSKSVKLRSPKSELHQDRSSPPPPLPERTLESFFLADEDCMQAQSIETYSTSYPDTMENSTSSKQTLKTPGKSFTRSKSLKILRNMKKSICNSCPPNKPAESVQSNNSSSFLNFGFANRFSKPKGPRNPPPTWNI

[10] = molecular target: T5, Tyrosine-protein phosphatase non-receptor type 22; assay: SAR LYP1 Fluorescent Assay using OMFP substrate for In Vitro dose response studies - Set 2. [Related pubchem assays (depositor defined):AID1779, AID1784, AID2140, AID449726, AID488869]; type: functional
[11] = molecular target: T6, Tyrosine-protein phosphatase non-receptor type 7 (Homo sapiens, UniProt P35236); assay: inhibition of hematopoietic tyrosine phosphatase HePTP – biochemical, set 2, SAR follow-up (AID 449736); type: functional
T6 sequence (P35236 whole entry): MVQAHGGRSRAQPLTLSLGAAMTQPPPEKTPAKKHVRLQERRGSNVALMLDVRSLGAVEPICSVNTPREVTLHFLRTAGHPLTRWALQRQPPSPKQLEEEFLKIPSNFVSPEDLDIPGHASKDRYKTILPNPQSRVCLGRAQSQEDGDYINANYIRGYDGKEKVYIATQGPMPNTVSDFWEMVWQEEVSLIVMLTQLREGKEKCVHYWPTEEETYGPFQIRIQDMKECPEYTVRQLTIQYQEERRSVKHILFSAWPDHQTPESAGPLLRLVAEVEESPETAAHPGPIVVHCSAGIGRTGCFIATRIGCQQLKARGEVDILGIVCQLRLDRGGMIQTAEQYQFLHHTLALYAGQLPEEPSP

[12] = molecular target: T5, Tyrosine-protein phosphatase non-receptor type 22; assay: inhibition of lymphoid tyrosine phosphatase LYP – biochemical, pCAP fluorogenic substrate, fluorescence, set 3, SAR follow-up (AID 449727); type: functional
[13] = molecular target: T5, Tyrosine-protein phosphatase non-receptor type 22; assay: SAR LYP1 Fluorescent Assay using OMFP substrate for In Vitro dose response studies - Set 3. [Related pubchem assays (depositor defined):AID1779, AID1784, AID2140, AID2686]; type: functional
[14] = molecular target: Tyrosine-protein phosphatase non-receptor type 12 (Homo sapiens, UniProt Q05209); assay: SAR Selectivity Analysis of small molecule inhibitors of PEST using pCAP in a fluorescence assay. [Related pubchem assays (depositor defined):AID1779, AID1784, AID2135]; type: functional
Sequence of Tyrosine-protein phosphatase non-receptor type 12 (Q05209 whole entry): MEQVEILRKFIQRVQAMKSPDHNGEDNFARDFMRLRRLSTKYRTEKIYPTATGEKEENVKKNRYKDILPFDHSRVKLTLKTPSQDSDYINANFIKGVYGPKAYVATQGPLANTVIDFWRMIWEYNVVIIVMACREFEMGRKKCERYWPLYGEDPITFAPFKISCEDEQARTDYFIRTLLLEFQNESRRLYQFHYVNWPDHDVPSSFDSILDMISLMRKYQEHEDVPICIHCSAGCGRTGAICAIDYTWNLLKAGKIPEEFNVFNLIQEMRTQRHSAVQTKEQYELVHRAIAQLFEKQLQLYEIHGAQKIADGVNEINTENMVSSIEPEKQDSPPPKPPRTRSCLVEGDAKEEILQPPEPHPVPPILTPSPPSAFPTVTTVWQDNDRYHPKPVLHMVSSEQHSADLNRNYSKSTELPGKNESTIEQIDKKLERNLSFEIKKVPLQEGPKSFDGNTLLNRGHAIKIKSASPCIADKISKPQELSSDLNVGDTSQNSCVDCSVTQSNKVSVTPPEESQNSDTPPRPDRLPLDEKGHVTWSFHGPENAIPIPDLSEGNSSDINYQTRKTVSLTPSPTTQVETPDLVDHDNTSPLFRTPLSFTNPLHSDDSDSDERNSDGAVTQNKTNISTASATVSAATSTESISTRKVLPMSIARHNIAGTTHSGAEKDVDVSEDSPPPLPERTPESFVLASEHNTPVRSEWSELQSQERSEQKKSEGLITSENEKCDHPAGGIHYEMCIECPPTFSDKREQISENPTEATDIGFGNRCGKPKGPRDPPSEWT

[15] = molecular target: T5, Tyrosine-protein phosphatase non-receptor type 22; assay: PubChem AID 2135
[16] = molecular target: T5, Tyrosine-protein phosphatase non-receptor type 22; assay: PubChem AID 2140
[17] = molecular target: T7, Kappa-type opioid receptor (Homo sapiens, UniProt P41145); type: functional
T7 sequence (P41145 whole entry): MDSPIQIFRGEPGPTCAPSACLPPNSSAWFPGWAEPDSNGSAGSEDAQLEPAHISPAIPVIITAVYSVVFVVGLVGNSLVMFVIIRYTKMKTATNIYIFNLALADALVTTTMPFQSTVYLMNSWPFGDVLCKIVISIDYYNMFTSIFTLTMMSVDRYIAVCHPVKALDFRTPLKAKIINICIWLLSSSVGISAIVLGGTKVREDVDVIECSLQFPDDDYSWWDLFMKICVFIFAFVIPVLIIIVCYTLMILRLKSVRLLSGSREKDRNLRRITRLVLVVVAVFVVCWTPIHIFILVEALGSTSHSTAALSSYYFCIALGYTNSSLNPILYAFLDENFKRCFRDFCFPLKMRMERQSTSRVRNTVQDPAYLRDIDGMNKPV

[18] = molecular target: T8, Delta-type opioid receptor (Homo sapiens, UniProt P41143); assay: HTS Image-Based Screen for Agonists of the DOR Receptor. [Related pubchem assays (depositor defined):AID1777, AID1786, AID2133]; type: functional
T8 sequence (P41143 whole entry): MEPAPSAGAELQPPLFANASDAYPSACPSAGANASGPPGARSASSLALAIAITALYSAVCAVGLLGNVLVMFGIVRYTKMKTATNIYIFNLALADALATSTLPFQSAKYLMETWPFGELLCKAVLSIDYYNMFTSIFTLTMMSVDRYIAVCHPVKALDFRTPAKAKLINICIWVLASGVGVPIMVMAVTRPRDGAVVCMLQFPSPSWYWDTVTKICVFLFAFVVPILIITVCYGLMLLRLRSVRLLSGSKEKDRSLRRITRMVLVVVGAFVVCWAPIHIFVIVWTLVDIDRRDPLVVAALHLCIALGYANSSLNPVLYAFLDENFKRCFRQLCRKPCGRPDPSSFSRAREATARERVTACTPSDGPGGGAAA

[19] = molecular target: T8, Delta-type opioid receptor; assay: HTS Image-Based Screen for Antagonists of the DOR Receptor. [Related pubchem assays (depositor defined):AID1777, AID1785, AID1786, AID2133]; type: functional
Mu-type opioid receptor = Mu-type opioid receptor (Homo sapiens, UniProt P35372); assay: HTS Image-Based Screen for Agonists of the MOR Receptor. [Related pubchem assays (depositor defined):AID1777, AID1785, AID1786, AID2133]; type: functional;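 also: imaging of beta-arrestin GFP recruitment into spots after receptor activation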
Sequence of Mu-type opioid receptor (P35372 whole entry): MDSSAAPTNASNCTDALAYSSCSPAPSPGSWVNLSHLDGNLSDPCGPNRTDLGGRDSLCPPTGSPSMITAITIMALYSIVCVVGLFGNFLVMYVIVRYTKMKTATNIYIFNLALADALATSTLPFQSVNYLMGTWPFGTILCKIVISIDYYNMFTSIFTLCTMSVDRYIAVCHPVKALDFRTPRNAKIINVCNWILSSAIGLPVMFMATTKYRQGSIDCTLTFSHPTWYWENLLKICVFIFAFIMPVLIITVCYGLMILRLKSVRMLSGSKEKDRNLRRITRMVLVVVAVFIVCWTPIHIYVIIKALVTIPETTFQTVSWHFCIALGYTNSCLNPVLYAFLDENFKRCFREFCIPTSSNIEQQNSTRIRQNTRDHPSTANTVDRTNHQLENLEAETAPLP

[20] = molecular target: T7, Kappa-type opioid receptor; type: functional; remark: listed apart in the source
[21] = molecular target: T9, E3 ubiquitin-protein ligase XIAP (Homo sapiens, UniProt P98170); assay: SAR analysis of Antagonists of IAP-family anti-apoptotic proteins. [Related pubchem assays (depositor defined):AID1018, AID1449, AID1513, AID1514, AID1638]
T9 sequence (P98170 whole entry, the tested form may be a part): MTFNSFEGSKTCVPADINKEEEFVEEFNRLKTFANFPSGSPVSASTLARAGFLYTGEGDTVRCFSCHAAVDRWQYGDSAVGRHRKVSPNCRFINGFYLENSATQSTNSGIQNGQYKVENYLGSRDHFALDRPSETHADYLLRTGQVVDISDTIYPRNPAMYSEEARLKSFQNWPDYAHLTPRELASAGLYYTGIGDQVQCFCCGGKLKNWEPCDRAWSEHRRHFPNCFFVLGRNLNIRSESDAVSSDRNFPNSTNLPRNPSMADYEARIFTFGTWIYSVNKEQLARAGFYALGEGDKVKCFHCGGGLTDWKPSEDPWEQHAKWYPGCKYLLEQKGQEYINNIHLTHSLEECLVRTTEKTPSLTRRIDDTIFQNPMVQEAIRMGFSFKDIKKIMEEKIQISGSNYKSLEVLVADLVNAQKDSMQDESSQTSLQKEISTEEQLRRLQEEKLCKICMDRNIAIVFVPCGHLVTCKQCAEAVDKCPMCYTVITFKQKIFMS

[22] = molecular target: T9, E3 ubiquitin-protein ligase XIAP; assay: SAR analysis of Antagonists of XIAP-Bir3 domain of IAP-family anti-apoptotic proteins. [Related pubchem assays (depositor defined):AID1018, AID1449, AID1513, AID1514, AID1638]
[23] = molecular target: Intestinal-type alkaline phosphatase (Homo sapiens, UniProt P09923); assay: human intestinal alkaline phosphatase activators, dose response, biochemical, luminescence, uHTS hits (AID 463120); type: functional
Sequence of Intestinal-type alkaline phosphatase (P09923 whole entry): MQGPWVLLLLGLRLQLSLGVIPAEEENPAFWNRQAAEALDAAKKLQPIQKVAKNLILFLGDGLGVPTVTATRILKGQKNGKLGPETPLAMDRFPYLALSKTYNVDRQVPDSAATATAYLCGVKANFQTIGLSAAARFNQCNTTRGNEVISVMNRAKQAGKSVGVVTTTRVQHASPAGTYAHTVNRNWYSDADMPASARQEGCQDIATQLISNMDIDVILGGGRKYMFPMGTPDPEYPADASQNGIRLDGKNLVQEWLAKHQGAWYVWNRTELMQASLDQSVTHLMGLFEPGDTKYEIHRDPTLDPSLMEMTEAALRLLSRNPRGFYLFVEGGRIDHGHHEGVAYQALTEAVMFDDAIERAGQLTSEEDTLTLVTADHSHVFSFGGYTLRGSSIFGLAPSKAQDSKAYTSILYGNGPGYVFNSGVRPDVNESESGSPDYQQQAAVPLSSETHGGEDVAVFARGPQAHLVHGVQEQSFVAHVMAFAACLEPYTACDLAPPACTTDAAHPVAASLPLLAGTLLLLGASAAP

EC50 (Cannabinoid receptor 1 [1]): > 32 µM (inactive)
IC50 (Cannabinoid receptor 1 [2]): > 32 µM (inactive)
IC50 [3]: 1.81 µM (active)
IC50 [4]: 3.42 µM (active)
EC50 [5]: > 32 µM (inactive)
IC50 (Cannabinoid receptor 2 [6]): > 32 µM (inactive)
EC50 (Cannabinoid receptor 2 [7]): > 32 µM (inactive)
IC50 [8]: > 32 µM (inactive)
Structure (SMILES): CCCCC1(Cc2ccc(OC)c([N+](=O)[O-])c2)C(=O)N(c2ccccc2)N(c2ccccc2)C1=O

IC50 [9]: 86.7 µM (active)
IC50 [10]: 65.5 µM (active)
IC50 [11]: 3.65 µM (active)
IC50 [12]: > 100 µM (inactive)
IC50 [13]: 82.9 µM (active)
IC50 [14]: 21 µM (active)
IC50 [15]: > 100 µM (inactive)
IC50 [16]: > 100 µM (inactive)
Structure (SMILES): N#C/C(=C/c1ccc(OCc2ccc(C(=O)O)cc2)cc1)c1cccc(F)c1

EC50 [17]: > 35 µM
EC50 [18]: > 32 µM (inactive)
IC50 [19]: > 32 µM (inactive)
EC50 (Mu-type opioid receptor): > 32 µM (inactive)
EC50 [20]: 3.55 µM
Structure (SMILES): O=C(c1ccc([N+](=O)[O-])cc1)N(Cc1ccc(Br)cc1)N1C(=O)CCCC1=O

IC50 [21]: 1.3 µM (active)
IC50 [22]: 2.9 µM (active)
Structure (SMILES): CN[C@@H](C)C(=O)N[C@H](C(=O)N1CCC[C@H]1C(=O)NNc1ccccc1)C(C)C

EC50 [23]: 12.7 µM (active)
Structure (SMILES): Cc1cc(C)c2nc(SCC(=O)NNC(=O)c3ccco3)c(C)cc2c1
